Data set [1] in a line: Dissolution of Apixaban in non-halogen organic solvents. In kind it is physicochemical. The settings on record: 25 mg Apixaban in 1 mL of each of ethyl acetate, ethyl formate, methyl propionate, ethanol; stirred. The procedure:
25 mg of Apixaban was added to 1 mL of each of ethyl acetate, ethyl formate, methyl propionate, and ethanol and stirred. As a result, it was confirmed that Apixaban was not dissolved in the four organic solvents (FIG. 1).

Data set [2] in a line: Dissolution of Apixaban in halogen organic solvent (dichloromethane). It is filed as physicochemical. Conditions: 25 mg Apixaban in 1 mL dichloromethane, after 12 hours. The procedure:
25 mg of Apixaban was dissolved in 1 mL, of dichloromethane, and the mixture was photographed after 12 hours.

The conditions of data set [3]: oral administration; cited from earlier work.

As for `COc1ccc(-n2nc(C(N)=O)c3c2C(=O)N(c2ccc(N4CCCCC4=O)cc2)CC3)cc1` [Apixaban], the “Dissolution of Apixaban in non-halogen organic solvents” value in data set [1] is given as “not dissolved”. The “Dissolution / recrystallization of Apixaban in dichloromethane” value in data set [2] is given as “Apixaban crystals were formed”. Further, the bioavailability result in data set [3] is recorded as “about 50%”.

The values above are taken from patent publication US12414919B2, “Method for preparing biocompatible polymer-based apixaban-loaded microspheres” (HLB PHARMACEUTICAL CO., LTD., priority 2019, dated 2025).
